Experiments:
Format in all cases: cell-based
[1] = system: NCI-H69 cell line; test: Cell viability assay for NCI-H69 cell line (EZ-Cytox); details: Homo sapiens, NCI-H69, 120 h; H69 cells, 5 days, 3000 nM to 0.46 nM
In short: (§1)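 IC50 values are binned (A: <30 nM, B: <50 nM, C: <100 nM, D: <200 nM, E: <400 nM) from EZ-Cytox read-outs. Cells were exposed to compound for 5 days, then shaken 3 min and absorbance taken at […].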

[2] = system: NCI-H526 cell line; test: Cell viability assay for NCI-H526 cell line (EZ-Cytox); details: Homo sapiens, NCI-H526, 120 h; H526 cells, 5 days, 3000 nM to 0.46 nM
In short: as §1

[3] = system: MRC-5 cell line; test: Cell viability assay for MRC-5 cell line (EZ-Cytox); details: Homo sapiens, MRC5, 120 h; MRC-5 normal cell line, 5 days, 10000 nM to 1.52 nM; read-out: Activity: IC50 value, cell viability, MRC-5 cell line (Exemplary Compounds)
Protocol: 4. Cell Viability Assay for MRC-5 Cell Line
(1) Culture of MRC-5 Cell Line
The MRC-5 cell line was purchased from KCLB. Passage of cultured cells was maintained within P15.
(2) Treatment of Compounds of the Present Invention
Then, it was cultured in 37° C. CO2 incubator (Thermo Fisher Scientific) for 5 days.
(3) Cytotoxicity Experiment
CO2 incubator for 4 hours.

[4] = biological target: T1, PLK1 (Homo sapiens, UniProt P53350); test: Luciferase assay for PLK1 in HeLa LgBit (Plk1-HiBit KI) cell line; details: 300 nM compound, luminescence after 9 hours
T1 construct: endogenous in cells; host or cells: HeLa LgBit (Plk1-HiBit KI): HeLa stably expressing LgBit, with a CRISPR/Cas9 knock-in of HiBit at the endogenous PLK1 locus
T1 sequence (P53350 whole entry): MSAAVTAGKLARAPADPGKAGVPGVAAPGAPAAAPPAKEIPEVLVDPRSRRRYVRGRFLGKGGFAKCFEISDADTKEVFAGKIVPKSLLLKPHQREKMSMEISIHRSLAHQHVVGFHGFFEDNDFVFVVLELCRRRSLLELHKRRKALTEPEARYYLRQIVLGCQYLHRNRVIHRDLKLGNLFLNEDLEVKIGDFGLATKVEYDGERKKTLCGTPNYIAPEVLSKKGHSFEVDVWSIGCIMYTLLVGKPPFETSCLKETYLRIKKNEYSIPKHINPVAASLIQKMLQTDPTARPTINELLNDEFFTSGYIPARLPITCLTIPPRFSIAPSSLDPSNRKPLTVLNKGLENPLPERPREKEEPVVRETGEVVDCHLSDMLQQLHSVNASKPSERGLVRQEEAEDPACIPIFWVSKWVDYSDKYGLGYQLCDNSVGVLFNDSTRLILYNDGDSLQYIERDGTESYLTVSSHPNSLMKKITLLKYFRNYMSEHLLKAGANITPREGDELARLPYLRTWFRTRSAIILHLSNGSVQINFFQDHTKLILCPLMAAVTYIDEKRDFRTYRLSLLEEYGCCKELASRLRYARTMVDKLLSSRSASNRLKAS
In short: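 Compounds (300 nM) were added with Endurazine to thymidine-synchronised cells (2 mM, 24 h block, then release and 18 h culture), and luminescence at 470-480 nm was followed live. Cells: HeLa stably expressing LgBit, HiBit knocked into native PLK1 C-terminus. Value: luminescence ratio versus DMSO control.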

Activity: ratio of the luminescence value of compound treatment group to DMSO treatment group [4] | Structure (SMILES) | IC50 [1] [nM] | IC50 [2] [nM] | IC50 [3] [nM]
++ (++: <0.5) | COc1cc(C(=O)NC2CCC(N(C)CC3CCN(c4ccc(NC5CCC(=O)NC5=O)cc4F)CC3)CC2)ccc1Nc1ncc2c(n1)N(C(C)C)CC(F)(F)C(=O)N2C (stereo not shown) [Compound 26, 4-((7,7-difluoro-9-isopropyl-5-methyl-6-oxo-6,7,8,9-tetrahydro-5H-pyrimido[4,5-b][1,4]diazepin-2-yl)amino)-N-((1r,4r)-4-(((1-(4-((2,6-dioxopiperidin-3-yl)amino)-2-fluorophenyl)piperidin-4-yl)methyl)(methyl)amino)cyclohexyl)-3-methoxybenzamide] | < 30 | < 30 | > 10000
+++ (+++: <0.3) | CCN1CC(F)(F)C(=O)N(C)c2cnc(Nc3ccc(C(=O)NC4CCC(N(C)CC5CCN(c6ccc(NC7CCC(=O)NC7=O)cc6F)CC5)CC4)cc3OC)nc21 (stereo not shown) [Compound 27, N((1r,4r)-4-(((1-(4-((2,6-dioxopiperidin-3-yl)amino)-2-fluorophenyl)piperidin-4-yl)methyl)(methyl)amino)cyclohexyl)-4-((9-ethyl-7,7-difluoro-5-methyl-6-oxo-6,7,8,9-tetrahydro-5H-pyrimido[4,5-b][1,4]diazepin-2-yl)amino)-3-methoxybenzamide] | < 30 | < 30 | > 10000
+++ (+++: <0.3) | CCN1CC(F)(F)C(=O)N(C)c2cnc(Nc3ccc(C(=O)NN4CCC(CCN5CCN(c6ccc(NC7CCC(=O)NC7=O)cc6F)CC5)CC4)cc3OC)nc21 (stereo not shown) [Compound 28, N(4-(2-(4-(4-((2,6-dioxopiperidin-3-yl)amino)-2-fluorophenyl)piperazin-1-yl)ethyl)piperidin-1-yl)-4-((9-ethyl-7,7-difluoro-5-methyl-6-oxo-6,7,8,9-tetrahydro-5H-pyrimido[4,5-b][1,4]diazepin-2-yl)amino)-3-methoxybenzamide] | < 30 | < 30 | > 10000
+++ (+++: <0.3) | COc1cc(C(=O)NN2CCC(CCN3CCN(c4ccc(NC5CCC(=O)NC5=O)cc4F)CC3)CC2)ccc1Nc1ncc2c(n1)N(C(C)C)CC(F)(F)C(=O)N2C (stereo not shown) [Compound 29, 4-((7,7-difluoro-9-isopropyl-5-methyl-6-oxo-6,7,8,9-tetrahydro-5H-pyrimido[4,5-b][1,4]diazepin-2-yl)amino)-N-(4-(2-(4-(4-((2,6-dioxopiperidin-3-yl)amino)-2-fluorophenyl)piperazin-1-yl)ethyl)piperidin-1-yl)-3-methoxybenzamide] | < 30 | < 30 | > 10000
+++ (+++: <0.3) | COc1cc(C(=O)NC2CCN(CCC3CCN(c4ccc(NC5CCC(=O)NC5=O)cc4F)CC3)CC2)ccc1Nc1ncc2c(n1)N(C1CCCC1)CC(F)(F)C(=O)N2C (stereo not shown) [Compound 30, 4-((9-cyclopentyl-7,7-difluoro-5-methyl-6-oxo-6,7,8,9-tetrahydro-5H-pyrimido[4,5-b][1,4]diazepin-2-yl)amino)-N-(1-(2-(1-(4-((2,6-dioxopiperidin-3-yl)amino)-2-fluorophenyl)piperidin-4-yl)ethyl)piperidin-4-yl)-3-methoxybenzamide] | < 30 | < 30 | > 10000
++ (++: <0.5) | COc1cc(C(=O)NC2CCN(CCN3CCN(c4ccc(NC5CCC(=O)NC5=O)c(F)c4)CC3)CC2)ccc1Nc1ncc2c(n1)N(C1CCCC1)CC(F)(F)C(=O)N2C (stereo not shown) [Compound 32, 4-((9-cyclopentyl-7,7-difluoro-5-methyl-6-oxo-6,7,8,9-tetrahydro-5H-pyrimido[4,5-b][1,4]diazepin-2-yl)amino)-N-(1-(2-(4-(4-((2,6-dioxopiperidin-3-yl)amino)-3-fluorophenyl)piperazin-1-yl)ethyl)piperidin-4-yl)-3-methoxybenzamide] | < 30 | < 30 | > 10000
++ (++: <0.5) | COc1cc(C(=O)NN2CCC(CCN3CCN(c4ccc(NC5CCC(=O)NC5=O)c(F)c4)CC3)CC2)ccc1Nc1ncc2c(n1)N(C(C)C)CC(F)(F)C(=O)N2C (stereo not shown) [Compound 33, 4-((7,7-difluoro-9-isopropyl-5-methyl-6-oxo-6,7,8,9-tetrahydro-5H-pyrimido[4,5-b][1,4]diazepin-2-yl)amino)-N-(4-(2-(4-(4-((2,6-dioxopiperidin-3-yl)amino)-3-fluorophenyl)piperazin-1-yl)ethyl)piperidin-1-yl)-3-methoxybenzamide] | < 30 | < 30 | > 10000
++ (++: <0.5) | COc1cc(C(=O)NN2CCC(CCN3CCN(c4ccc(NC5CCC(=O)NC5=O)c(F)c4)CC3)CC2)ccc1Nc1ncc2c(n1)N(C1CCCC1)CC(F)(F)C(=O)N2C (stereo not shown) [Compound 34, 4-((9-cyclopentyl-7,7-difluoro-5-methyl-6-oxo-6,7,8,9-tetrahydro-5H-pyrimido[4,5-b][1,4]diazepin-2-yl)amino)-N-(4-(2-(4-(4-((2,6-dioxopiperidin-3-yl)amino)-3-fluorophenyl)piperazin-1-yl)ethyl)piperidin-1-yl)-3-methoxybenzamide] | < 30 | < 30 | > 10000
++ (++: <0.5) | CCN1CC(F)(F)C(=O)N(C)c2cnc(Nc3cc(F)c(C(=O)NN4CCC(CCN5CCN(c6ccc(NC7CCC(=O)NC7=O)c(F)c6)CC5)CC4)cc3OC)nc21 (stereo not shown) [Compound 35, N(4-(2-(4-(4-((2,6-dioxopiperidin-3-yl)amino)-3-fluorophenyl)piperazin-1-yl)ethyl)piperidin-1-yl)-4-((9-ethyl-7,7-difluoro-5-methyl-6-oxo-6,7,8,9-tetrahydro-5H-pyrimido[4,5-b][1,4]diazepin-2-yl)amino)-2-fluoro-5-methoxybenzamide] | < 50 | < 30 | > 10000
+++ (+++: <0.3) | COc1cc(C(=O)NC2CC3(CCN(CC4CCN(c5ccc(NC6CCC(=O)NC6=O)c(F)c5)CC4)CC3)C2)ccc1Nc1ncc2c(n1)N(C1CCCC1)CC(F)(F)C(=O)N2C (stereo not shown) [Compound 36, 4-((9-cyclopentyl-7,7-difluoro-5-methyl-6-oxo-6,7,8,9-tetrahydro-5H-pyrimido[4,5-b][1,4]diazepin-2-yl)amino)-N-(7-((1-(4-((2,6-dioxopiperidin-3-yl)amino)-3-fluorophenyl)piperidin-4-yl)methyl)-7-azaspiro[3.5]nonan-2-yl)-3-methoxybenzamide] | < 50 | < 30 | > 10000
++ (++: <0.5) | COc1cc(C(=O)NC2CCN(CCC3CCN(c4ccc(NC5CCC(=O)NC5=O)c(F)c4)CC3)CC2)c(F)cc1Nc1ncc2c(n1)N(C(C)C)CC(F)(F)C(=O)N2C (stereo not shown) [Compound 37, 4-((7,7-difluoro-9-isopropyl-5-methyl-6-oxo-6,7,8,9-tetrahydro-5H-pyrimido[4,5-b][1,4]diazepin-2-yl)amino)-N-(1-(2-(1-(4-((2,6-dioxopiperidin-3-yl)amino)-3-fluorophenyl)piperidin-4-yl)ethyl)piperidin-4-yl)-2-fluoro-5-methoxybenzamide] | < 100 | < 50 | > 10000
+++ (+++: <0.3) | COc1cc(C(=O)NN2CCC(CCN3CCN(c4ccc(N(C)C5CCC(=O)NC5=O)cc4F)CC3)CC2)ccc1Nc1ncc2c(n1)N(C(C)C)CC(F)(F)C(=O)N2C (stereo not shown) [Compound 38, 4-((7,7-difluoro-9-isopropyl-5-methyl-6-oxo-6,7,8,9-tetrahydro-5H-pyrimido[4,5-b][1,4]diazepin-2-yl)amino)-N-(4-(2-(4-(4-((2,6-dioxopiperidin-3-yl)(methyl)amino)-2-fluorophenyl)piperazin-1-yl)ethyl)piperidin-1-yl)-3-methoxybenzamide] | < 30 | < 30 | > 10000
++ (++: <0.5) | COc1cc(C(=O)NN2CCC(CCN3CCN(c4cc(OC)c(NC5CCC(=O)NC5=O)cc4F)CC3)CC2)ccc1Nc1ncc2c(n1)N(C(C)C)CC(F)(F)C(=O)N2C (stereo not shown) [Compound 39, 4-((7,7-difluoro-9-isopropyl-5-methyl-6-oxo-6,7,8,9-tetrahydro-5H-pyrimido[4,5-b][1,4]diazepin-2-yl)amino)-N-(4-(2-(4-(4-((2,6-dioxopiperidin-3-yl)amino)-2-fluoro-5-methoxyphenyl)piperazin-1-yl)ethyl)piperidin-1-yl)-3-methoxybenzamide] | < 30 | < 30 | > 10000

From patent publication US20260273072A1, “NOVEL PLK1 DEGRADATION INDUCING COMPOUND” (UPPTHERA, INC., priority 2023, published 2026)
